Test results from the NIST ThermoML archive (doi:10.1021/je800579j).

What was measured:
[1] = refractive index (Na D-line) (dimensionless); xn = mol fraction of the nth substance listed; settings: Liquid, Standard Abbe refractometry
[2] = xn = mol fraction of the nth substance listed; settings: Liquid, Pycnometric method
[3] = refractive index (Na D-line) (dimensionless); settings: Liquid, Standard Abbe refractometry
[4] = Liquid, Pycnometric method

C1COCCO1 [1,4-dioxane] + Cc1cccc(C)c1
x1 = 1
Settings | mass density, [2] [kg/m3] | refractive index, [1]
288.15 K | 1039.23 | 1.4245
293.15 K | 1033.59 | 1.4224
298.15 K | 1027.95 | 1.4203
303.15 K | 1022.32 | 1.4182
308.15 K | 1016.68 | 1.4161
313.15 K | 1011.05 | 1.4139
318.15 K | 1005.42 | 1.4117

C1COCCO1 [1,4-dioxane] + Cc1cc(C)cc(C)c1
x1 = 1
Settings | mass density, [2] [kg/m3] | refractive index, [1]
288.15 K | 1039.23 | 1.4245
293.15 K | 1033.59 | 1.4224
298.15 K | 1027.95 | 1.4203
303.15 K | 1022.32 | 1.4182
308.15 K | 1016.68 | 1.4161
313.15 K | 1011.05 | 1.4139
318.15 K | 1005.42 | 1.4117

C1COCCO1 [1,4-dioxane]
Settings | mass density, [4] [kg/m3] | refractive index, [3]
288.15 K | 1039.23 | 1.4245
293.15 K | 1033.59 | 1.4224
298.15 K | 1027.95 | 1.4203
303.15 K | 1022.32 | 1.4182
308.15 K | 1016.68 | 1.4161
313.15 K | 1011.05 | 1.4139
318.15 K | 1005.42 | 1.4117

Cc1cccc(C)c1 [1,3-dimethylbenzene]
Settings | mass density, [4] [kg/m3] | refractive index, [3]
288.15 K | 868.59 | 1.4999
293.15 K | 864.31 | 1.4974
298.15 K | 860.02 | 1.4948
303.15 K | 855.74 | 1.4922
308.15 K | 851.45 | 1.4896
313.15 K | 847.17 | 1.487
318.15 K | 842.88 | 1.4844

Cc1ccccc1 [toluene]
Settings | mass density, [4] [kg/m3] | refractive index, [3]
288.15 K | 871.79 | 1.4998
293.15 K | 867.08 | 1.497
298.15 K | 862.36 | 1.4942
303.15 K | 857.64 | 1.4913
308.15 K | 852.93 | 1.4884
313.15 K | 848.21 | 1.4855
318.15 K | 843.49 | 1.4826

Cc1ccccc1C [1,2-dimethylbenzene]
Settings | mass density, [4] [kg/m3] | refractive index, [3]
288.15 K | 884.09 | 1.5083
293.15 K | 879.83 | 1.5055
298.15 K | 875.57 | 1.5029
303.15 K | 871.31 | 1.5002
308.15 K | 867.05 | 1.4975
313.15 K | 862.79 | 1.4948
318.15 K | 858.53 | 1.4921

c1ccccc1 [benzene]
Settings | mass density, [4] [kg/m3] | refractive index, [3]
288.15 K | 884.3 | 1.5042
293.15 K | 878.95 | 1.5011
298.15 K | 873.61 | 1.498
303.15 K | 868.26 | 1.4949
308.15 K | 862.9 | 1.4918
313.15 K | 857.56 | 1.4887
318.15 K | 852.23 | 1.4856

Cc1cc(C)cc(C)c1 [1,3,5-trimethylbenzene]
Settings | mass density, [4] [kg/m3] | refractive index, [3]
288.15 K | 869.28 | 1.502
293.15 K | 865.37 | 1.4995
298.15 K | 861.45 | 1.4969
303.15 K | 857.54 | 1.4944
308.15 K | 853.63 | 1.4918
313.15 K | 849.71 | 1.4893
318.15 K | 845.8 | 1.4868

C1COCCO1 [1,4-dioxane] + Cc1ccccc1C
x1 = 1
Settings | mass density, [2] [kg/m3] | refractive index, [1]
288.15 K | 1039.23 | 1.4245
293.15 K | 1033.59 | 1.4224
298.15 K | 1027.95 | 1.4203
303.15 K | 1022.32 | 1.4182
308.15 K | 1016.68 | 1.4161
313.15 K | 1011.05 | 1.4139
318.15 K | 1005.42 | 1.4117

C1COCCO1 [1,4-dioxane] + Cc1ccc(C)cc1
x1 = 1
Settings | mass density, [2] [kg/m3] | refractive index, [1]
288.15 K | 1039.23 | 1.4245
293.15 K | 1033.59 | 1.4224
298.15 K | 1027.95 | 1.4203
303.15 K | 1022.32 | 1.4182
308.15 K | 1016.68 | 1.4161
313.15 K | 1011.05 | 1.4139
318.15 K | 1005.42 | 1.4117

Cc1ccc(C)cc1 [1,4-dimethylbenzene]
Settings | mass density, [4] [kg/m3] | refractive index, [3]
288.15 K | 865.52 | 1.4985
293.15 K | 861.17 | 1.4959
298.15 K | 856.82 | 1.4933
303.15 K | 852.47 | 1.4907
308.15 K | 848.12 | 1.4881
313.15 K | 843.77 | 1.4855
318.15 K | 839.42 | 1.483

c1ccccc1 [benzene] + C1COCCO1
x2 = 0
Settings | mass density, [2] [kg/m3] | refractive index, [1]
288.15 K | 884.3 | 1.5042
293.15 K | 878.95 | 1.5011
298.15 K | 873.61 | 1.498
303.15 K | 868.26 | 1.4949
308.15 K | 862.9 | 1.4918
313.15 K | 857.56 | 1.4887
318.15 K | 852.23 | 1.4856

Cc1ccccc1 [toluene] + C1COCCO1
x2 = 0
Settings | mass density, [2] [kg/m3] | refractive index, [1]
288.15 K | 871.79 | 1.4998
293.15 K | 867.08 | 1.497
298.15 K | 862.36 | 1.4942
303.15 K | 857.64 | 1.4913
308.15 K | 852.93 | 1.4884
313.15 K | 848.21 | 1.4855
318.15 K | 843.49 | 1.4826
